For eleven compounds, IC50 results are on record in BindingDB's records for doi:10.1021/jf050110v (China Pharmaceutical University, 2020).

In this experiment the target is High affinity nerve growth factor receptor (Homo sapiens, UniProt P04629). The experiment in a line: Inhibition of wild type […] (unknown origin) incubated for 30 mins by caliper mobility shift assay.

Molecules are shown by their SMILES.

By IC50 is commonly meant the concentration that inhibits the measured activity by half.

Sequence of High affinity nerve growth factor receptor (P04629 whole entry): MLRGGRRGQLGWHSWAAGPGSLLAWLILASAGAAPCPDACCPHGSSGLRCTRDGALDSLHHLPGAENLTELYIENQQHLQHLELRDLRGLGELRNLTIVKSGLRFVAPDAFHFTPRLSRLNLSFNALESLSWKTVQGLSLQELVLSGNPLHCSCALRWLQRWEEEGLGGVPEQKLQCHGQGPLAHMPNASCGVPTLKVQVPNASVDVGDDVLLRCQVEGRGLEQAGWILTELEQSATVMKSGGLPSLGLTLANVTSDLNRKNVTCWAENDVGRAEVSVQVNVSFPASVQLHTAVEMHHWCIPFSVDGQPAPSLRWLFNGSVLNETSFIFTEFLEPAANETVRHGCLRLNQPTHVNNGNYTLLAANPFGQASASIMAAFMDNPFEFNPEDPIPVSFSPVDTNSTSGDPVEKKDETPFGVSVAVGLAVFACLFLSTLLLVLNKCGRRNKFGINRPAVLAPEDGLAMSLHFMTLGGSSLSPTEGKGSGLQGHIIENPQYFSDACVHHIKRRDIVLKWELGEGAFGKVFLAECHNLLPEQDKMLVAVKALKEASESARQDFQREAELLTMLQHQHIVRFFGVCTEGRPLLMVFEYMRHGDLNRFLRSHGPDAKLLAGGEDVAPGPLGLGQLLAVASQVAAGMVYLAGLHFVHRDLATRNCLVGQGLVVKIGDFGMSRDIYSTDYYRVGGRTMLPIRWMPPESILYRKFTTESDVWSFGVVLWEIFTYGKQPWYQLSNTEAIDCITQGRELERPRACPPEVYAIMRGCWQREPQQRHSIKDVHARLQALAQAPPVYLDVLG

In the case of `O=C(NC1CCOCC1)c1cnn2ccc(NCc3cccc(F)c3)nc12`, the IC50 amounted to 3.6 nM.
Take `O=C(N[C@H]1CC[C@H](O)CC1)c1cnn2ccc(NCc3cccc(F)c3)nc12`: the IC50 was 1.6 nM.
In the case of `CO[C@H]1CC[C@H](NC(=O)c2cnn3ccc(NCc4cccc(F)c4)nc23)CC1`, the IC50 stood at 1.5 nM.
As for `CC(Nc1ccn2ncc(C(=O)NC3CCOCC3)c2n1)c1cccc(F)c1` (stereo unspecified), the IC50 turned out to be 2.1 nM.
Take `CC(Nc1ccn2ncc(C(=O)N[C@H]3CC[C@H](O)CC3)c2n1)c1cccc(F)c1` (stereo partly specified): the 50% inhibitory concentration (IC50) is 3 nM.
For `CN(Cc1cccc(F)c1)c1ccn2ncc(C(=O)NC3CCOCC3)c2n1` the value was 3.2 nM; for `CN(Cc1cccc(F)c1)c1ccn2ncc(C(=O)N[C@H]3CC[C@H](O)CC3)c2n1`, 1.3 nM.
In the case of `CO[C@H]1CC[C@H](NC(=O)c2cnn3ccc(N(C)Cc4cccc(F)c4)nc23)CC1`, the IC50 worked out at 1.1 nM.
As for `O=C(NC1CCOCC1)c1cnc2ccc(NCc3cccc(F)c3)nn12`, the IC50 turned out to be 8.4 nM.
Turning to `O=C(N[C@H]1CC[C@H](O)CC1)c1cnc2ccc(NCc3cccc(F)c3)nn12`, the 50% inhibitory concentration (IC50) was found to be 2.8 nM.
Turning to `CO[C@H]1CC[C@H](NC(=O)c2cnc3ccc(NCc4cccc(F)c4)nn23)CC1`, the concentration for half-maximal inhibition (IC50) turned out to be 3 nM.
